Source: PubChem BioAssay AID2765 (Broad Institute, 2010)
Activity calls are given as the source filed them.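 Rule for the calls: active = half-maximal concentration for the rise in caspase light signal at or below ten times the top tested dose; inconclusive = flat fit between 30% and 70% activity, or unreliable curve fit; inactive = the rest.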

What follows are compounds tested on MEF A1-2A-BIM cells, caspase 3/7 luminescence, 3 h (assay: inducers of caspase signal in A1-dependent MEFs – cell-based, luminescence, retest, A1 inhibitor project, dose response (AID 2765)).

| SMILES | EC50 |
| --- | --- |
| Cc1ccc(-c2nc(NC(=O)c3nn(C)cc3[N+](=O)[O-])sc2C)cc1C | 6.26 µM |
| NC(=O)CCSC(=S)N1CCOCC1 | > 35 µM (inactive) |
| O=C(O)c1ccc2c(c1)C(=O)N(c1ccc(Cl)cn1)C2=O | > 35 µM (inactive) |
| CCCN1CCN(CCCNC(=O)CCCn2nc(C)c3sc4ccccc4c3c2=O)CC1 | > 35 µM (inactive) |
| CC(C)CNC(=S)N(Cc1ccco1)Cc1cc2cc3c(cc2[nH]c1=O)OCCO3 | > 35 µM (inactive) |
| O=C(Cn1ncc(Cl)c(Cl)c1=O)NCC1CCCCC1 | > 35 µM (inactive) |
| CCC(NC(=O)c1cccc(Cn2cc([N+](=O)[O-])cn2)c1)c1ccc(C(C)C)cc1 (stereo unspecified) | > 35 µM (inactive) |
| O=S1(=O)C=C(Sc2nc3cc(Cl)ccc3o2)c2ccccc21 | > 35 µM (inactive) |
| COc1cc(/C=C(/C#N)c2nc3ccccc3[nH]2)ccc1OCC(=O)Nc1ccccc1C(C)C | 14.6 µM |
| COc1cc(OC)cc(C(=O)N[C@H](C(=O)OCC(=O)Nc2ccc(C)cc2C)C(C)C)c1 | > 35 µM (inactive) |
| COc1ccc(OC)c(/C=C/C(=O)N(C)CC(=O)Nc2cc(C)ccc2C)c1 | > 35 µM (inactive) |
| Cc1cc(C)c(S(=O)(=O)N2CCCCCC2)cc1Br | > 35 µM (inactive) |
| Clc1nc(NCc2ccco2)nc(N2CCCCC2)n1 | > 35 µM (inactive) |
| CC1=C(C(N)=O)C(c2ccc3c(c2)OCO3)n2nc(-c3cccc(C)c3)nc2N1 (stereo unspecified) | > 35 µM (inactive) |
| CC(Sc1nc(-c2ccccc2)cc(C(F)(F)F)n1)C(=O)N1CCCCC1 (stereo unspecified) | > 35 µM (inactive) |
| O=C(Nc1cccc(Cl)c1)c1ccc(OC(=S)N2CCOCC2)cc1 | > 35 µM (inactive) |
| O=C(Nc1ccc(Cl)cc1Cl)c1cccc(N2C(=O)C=CC2=O)c1 | > 35 µM (inactive) |
| CCN1CCN(CC(=O)Nc2cc(F)ccc2C)CC1 | > 35 µM (inactive) |
| CCOC(=O)C(NC(=O)c1ccc(OC)cc1)(N1CCCC1=O)C(F)(F)F (stereo unspecified) | > 35 µM (inactive) |
| CC(C)(C)OC(=O)n1cc(CCO)c2ccccc21 | > 35 µM (inactive) |
| CCOc1nc2c(c(-c3cccs3)c1C#N)Cc1ccccc1-2 | > 35 µM (inactive) |
| Cc1cccc(C)c1OCc1nnc(SCC(=O)Nc2nccs2)n1-c1ccccc1 | > 35 µM (inactive) |
| O=C(NNC(=O)c1cc(C(F)(F)F)cc(C(F)(F)F)c1)c1ccc(Cl)cc1 | > 35 µM (inactive) |
| COc1ccc(/C=C/C(=O)NC(=S)NCCc2ccc(OC)c(OC)c2)cc1 | > 35 µM (inactive) |

| SMILES | EC50 |
| --- | --- |
| COc1cc(NC(=O)c2nn(C)c3c2CS(=O)(=O)c2ccccc2-3)cc(OC)c1 | > 35 µM (inactive) |
| O=[N+]([O-])/C=C/c1cn(Cc2ccc(Cl)cc2)c2ccccc12 | 21.6 µM |
| O=C(Cn1c(C(F)(F)F)nc2ccccc21)N=Nc1c(O)[nH]c2ccc(Br)cc12 | 27.4 µM |
| CCCS(=O)(=O)C/C(N)=N/OC(=O)c1ccc(Cl)cc1 | > 35 µM (inactive) |
| CCOc1cc2[nH]c(=S)n(CCCOC)c(=O)c2cc1OCC | > 35 µM (inactive) |
| O=C(N/N=C/c1ccccc1O)C1CC(=O)N(c2ccc(F)cc2)C1 (stereo unspecified) | > 35 µM (inactive) |
| O=C(N/N=C/c1ccc(N2CCCCC2)o1)c1ccccc1[N+](=O)[O-] | > 35 µM (inactive) |
| CN(C(=O)CSc1ccncc1)C1CCCN(Cc2ccccc2F)C1 (stereo unspecified) | > 35 µM (inactive) |
| CC1CCCN(C(=O)CN2C(=O)C(C)Oc3ccccc32)C1 (stereo unspecified) | > 35 µM (inactive) |
| O=C(Nc1ccc([N+](=O)[O-])cc1)C(Cc1ccccc1)N1C(=O)c2cccc3cccc(c23)C1=O (stereo unspecified) | > 35 µM (inactive) |
| COc1ccccc1NS(=O)(=O)c1ccc(C)c(C(=O)N2CCN(c3ccc(O)cc3)CC2)c1 | > 35 µM (inactive) |
| O=C(Oc1cccc(/C=N/Nc2nc(Nc3ccccc3)nc(N3CCOCC3)n2)c1)c1ccco1 | > 35 µM (inactive) |
| O=C1NCCCC1C(=O)N/N=C/c1cccc([N+](=O)[O-])c1 (stereo unspecified) | > 35 µM (inactive) |
| Cc1ccc(-c2csc(N=C(N)N)n2)cc1 | > 35 µM (inactive) |
| Cc1ccc(N2CCN(C(=S)Nc3ccccc3C)CC2)cc1 | > 35 µM (inactive) |
| C=CCn1c(SCC(=O)NC2CC2)nnc1-c1ccccn1 | > 35 µM (inactive) |
| CC(C)(C)C1=CC=C(C(C)(C)C)C(=O)C1=O | > 35 µM (inactive) |
| CCn1c(SCC(=O)c2ccccc2)nnc1-c1cc2cc(Br)ccc2o1 | > 35 µM (inactive) |
| O=C(CC1CC2CCC1C2)N1CCN(S(=O)(=O)c2ccccc2C(F)(F)F)CC1 (stereo unspecified) | > 35 µM (inactive) |
| COc1cccc(-n2nnnc2S(C)(=O)=O)c1 | > 35 µM (inactive) |
| Cc1ccc(NC(=S)NC(NC(=O)Cc2cccc3ccccc23)C(Cl)(Cl)Cl)cc1 (stereo unspecified) | 20 µM |
| O=C1Nc2ncccc2OC1CCO (stereo unspecified) | > 35 µM (inactive) |
| CCC(=O)N/C(N)=N/c1nc(C)c2cc(C)c(C)cc2n1 | > 35 µM (inactive) |
| COc1ccc(S(N)(=O)=O)cc1C(=O)OCCCOc1ccc(F)cc1 | > 35 µM (inactive) |

| SMILES | EC50 |
| --- | --- |
| NS(=O)(=O)c1ccc(NC(=O)c2ccc3c(c2)CCCC3)cc1 | > 35 µM (inactive) |
| COc1ccc(OC)c(NC(=O)CSc2nnc(CNC(=O)COc3ccc(Cl)cc3)o2)c1 | > 35 µM (inactive) |
| CCOc1ccccc1OCCC(=O)N1CCN(S(=O)(=O)c2ccccc2[N+](=O)[O-])CC1 | > 35 µM (inactive) |
| CCOC(=O)c1c(C)oc2c1c(CN1CCN(C(=O)OCC)CC1)c(O)c1ccccc12 | 8.16 µM |
| NS(=O)(=O)c1ccc(-c2ccc(/C=C3\C(=O)Nc4ccccc43)o2)cc1 | > 35 µM (inactive) |
| CSc1nnc(-c2cc3c(-c4ccccc4)nn(C)c3s2)n1C | > 35 µM (inactive) |
| CC(C)(C)C(=O)CNS(=O)(=O)c1ccc(S(=O)(=O)NC2CC2)cc1 | > 35 µM (inactive) |
| CCOCCOC(=O)c1[nH]c2c(c1C)C(=O)CC(c1cccs1)C2 (stereo unspecified) | > 35 µM (inactive) |
| O=C(NCc1cccs1)C(=O)NCC1OCCCN1S(=O)(=O)c1ccccc1 (stereo unspecified) | > 35 µM (inactive) |
| COc1ccc(N2CCN(C(=O)CCn3nnc4ccccc43)CC2)cc1 | > 35 µM (inactive) |
| CC(C)(C)CC(=O)Nc1nnc(SCC(=O)NC2CCCCC2)s1 | > 35 µM (inactive) |
| Cc1ccc(S(=O)(=O)NCCN2CCOCC2)cc1 | > 35 µM (inactive) |
| COC(=O)Cc1csc(/N=C/c2c(O)n(-c3cccc(C(F)(F)F)c3)c(=O)c3ccccc23)n1 | 5.7 µM |
| CC(=O)OC(C)(C)/C=C/C(=O)C(C)(O)C1[C@H](O)C[C@@]2(C)C3CC=C4C(CC[C@@H](O)C4(C)C)[C@]3(CO)C(=O)C[C@]12C (stereo partly specified) | > 35 µM (inactive) |
| O=C(COc1ccc(Cl)cc1)NCc1nnc(SCC(=O)Nc2ccccc2F)o1 | > 35 µM (inactive) |
| COc1ccc(CNS(=O)(=O)c2ccccc2Br)cc1 | > 35 µM (inactive) |
| CC(NC(=O)c1cccc(OC2CCN(C3CCN(C)CC3)CC2)c1)c1ccccc1 (stereo unspecified) | > 35 µM (inactive) |
| O=C(O)c1cc(-c2ccc(Cl)cc2)n(-c2cccc(Cl)c2)n1 | > 35 µM (inactive) |
| COc1ccc(OC)c(S(=O)(=O)NC(C)c2ccc(-n3ccnc3)cc2)c1 (stereo unspecified) | > 35 µM (inactive) |
| CCCc1ccc(OCc2ccc(C(=O)N/N=C/c3cccc([N+](=O)[O-])c3)o2)c(OC)c1 | 7.22 µM |
| COc1ccc2c(c1)[nH]c1c(=O)n(/N=C/C3C(C)C=C(C)CC3C)c(=O)[nH]c12 (stereo unspecified) | > 35 µM (inactive) |
| COc1ccc(CCNC(=O)COC(=O)c2cnc(Cl)c(Cl)c2)cc1 | > 35 µM (inactive) |
| CC1Cc2ccccc2N1C(=O)C1CCN(S(=O)(=O)Cc2ccccc2)CC1 (stereo unspecified) | > 35 µM (inactive) |
| CCCCc1ccc(S(=O)(=O)NC2CCS(=O)(=O)C2)cc1 (stereo unspecified) | > 35 µM (inactive) |

| SMILES | EC50 |
| --- | --- |
| CN1C(=O)[C@H]2[C@@H](C3CC3)N3C(=O)CN(Cc4ccc(-c5ccccc5)cc4)C(=O)[C@@]3(C)[C@H]2C1=O | > 35 µM (inactive) |
| CC1CC(C)CN(C(=O)c2ccc(-c3ccc([N+](=O)[O-])cc3)o2)C1 (stereo unspecified) | > 35 µM (inactive) |
| CS(=O)(=O)c1sc(C#N)c2c1C(=O)CC(c1ccccc1)C2 (stereo unspecified) | > 35 µM (inactive) |
| Cc1ccc2c(c1)c(C1=c3ccccc3=NC1=O)c(O)n2C | > 35 µM (inactive) |
| Cc1cccc(C)c1NC(=O)CSc1nc(C)c(CC(=O)c2ccc(Br)cc2)c(C)c1C#N | 30.2 µM |
| Cc1cc(=O)oc2c3c(cc(OCC(=O)N[C@@H](CC(C)C)C(=O)O)c12)OC(C)(C)CC3 | > 35 µM (inactive) |
| COc1ccc2nc(SCC(=O)N3CCN(c4ccc(F)cc4)CC3)c(C#N)cc2c1 | > 35 µM (inactive) |
| CC(=O)Nc1ccc(/C(C)=N/Nc2nc(Nc3ccccc3)nc(N3CCOCC3)n2)cc1 | > 35 µM (inactive) |
| CCCNC(=O)c1ccc(COc2ccc(Cl)cc2)o1 | > 35 µM (inactive) |
| O=C(CCCCl)NC(=S)Nc1ccc(CN2CCOCC2)cc1 | > 35 µM (inactive) |
| COc1cc2c(cc1OC)C(c1ccccc1Br)NC(=O)C2 (stereo unspecified) | > 35 µM (inactive) |
| CSc1ccc(CCNC(=O)CCc2nnc3ccc(NCCCN4CCCC4=O)nn23)cc1 | > 35 µM (inactive) |
| COc1ccc(C(=O)COC(=O)CNS(=O)(=O)c2ccc(C)cc2)cc1 | > 35 µM (inactive) |
| O=C(Nc1ccc([N+](=O)[O-])cn1)c1cc(-c2cccc(Br)c2)nc2ccccc12 | > 35 µM (inactive) |
| CCc1ccccc1NC(=O)CN(C)C(=O)Cn1ncc(Cl)c(Cl)c1=O | > 35 µM (inactive) |
| O=C(NC1CCCc2ccccc21)c1ccccc1OC(F)F (stereo unspecified) | > 35 µM (inactive) |
| CCOC(=O)C(C(=O)OCC)C(C(=O)OCC)N1CCOCC1 (stereo unspecified) | > 35 µM (inactive) |
| Cc1cccc(NC(=S)NCCc2ccc(F)cc2)c1C | > 35 µM (inactive) |
| CC(=O)Nc1ccc(NC(=O)C(C)OC(=O)/C=C/c2cn(-c3ccccc3)nc2-c2cccnc2)cc1 (stereo unspecified) | 17.1 µM |
| CCOc1ccc2nc(NCCNC(=O)Nc3cccc(C)c3)c(C#N)cc2c1 | 35.7 µM |
| Cc1cc(N2CCN(c3ccccc3)CC2)nc(-c2ccccc2)n1 | > 35 µM (inactive) |
| CCOc1ccccc1NC(=O)c1nc(S(=O)(=O)Cc2cccc(C)c2)ncc1Cl | > 35 µM (inactive) |
| COc1cc2cnc(-c3ccccc3)c(-c3cccc(C(F)(F)F)c3)c2cc1OC | > 35 µM (inactive) |
| Cc1ccc(Sc2ncccc2C(=O)NCc2cc([N+](=O)[O-])ccc2O)cc1C | > 35 µM (inactive) |
